According to patent US6624182B1, “Hydroxyphenylvinylthiazoles” (Ciba Specialty Chemicals Corporation, priority 1999, dated 2003):

Assays:
Assay in all cases: Determination of the minimum inhibitory concentration (MIC value) in microtitre plates
A. niger = type: cell-based, Aspergillus niger ATCC 6275; conditions: optical density at 620 nm, 5 days at 28° C., MIC = ≦20% growth; tested at 100; 10 and 1 ppm (approximate values); (2), (3), (4) at 120; 60; 30; 15; 7.5; 3.75 ppm
Method: (§1) Determination of the Minimum Inhibitory Concentration (MIC Value) in Microtitre Plates Nutrient Medium Casein/soybean flour/peptone bouillon for the preparation of preliminary cultures of the test bacteria and yeast. Mycological slant agar for the preliminary culture of moulds Examples of Test Microbes: Mould: Aspergillus niger ATCC 6275 Procedure: The test substances are pre-dissolved in dimethyl sulfoxide (DMSO) and tested in a series of dilutions of 1:2. Bacteria and yeast are cultured overnight in CASO bouillon; the mould is cultured on myco-logical slant agar and sponged off with 10 ml of 0.85% sodium chloride solution (+0.1% Triton X-100). All the test microbes are adjusted to a germ count of 1−5×10^6 KBE/ml using 0.85% sodium chloride solution. The test substances are pre-pipetted into microtitre plates in an amount of 8 μl per well. Pre-diluted microbe suspensions are diluted 1:100 in CASO bouillon (bacteria and yeast) or Sabouraud 2% glucose bouillon (mould) and added to the test substances in an amount of 192 μl per well. The test batches are incubated for 48 hours at 37° C. (bacteria and yeast) or for 5 days at 28° C. (mould). After incubation, the growth is determined by means of the clouding of the test batches (optical density) at 620 nm in a microplate reader. The concentration of substance at which (compared with the growth control) a marked inhibition of growth (≦20% growth) of the test microbes can be observed is given as the minimum inhibitory concentration (MIC value). One microtitre plate is used per test microbe and substance concentration. All substances are tested in duplicate.

P. aeruginosa = type: cell-based, Pseudomonas aeruginosa CIP A-22; conditions: optical density at 620 nm, 48 hours at 37° C., MIC = ≦20% growth; tested at 100; 10 and 1 ppm (approximate values); (2), (3), (4) at 120; 60; 30; 15; 7.5; 3.75 ppm
Method: as §1, with “Bacteria: Pseudomonas aeruginosa CIP A-22” for “Mould: Aspergillus niger ATCC 6275”

C. albicans = type: cell-based, Candida albicans ATCC 10231; conditions: optical density at 620 nm, 48 hours at 37° C., MIC = ≦20% growth; tested at 100; 10 and 1 ppm (approximate values); (2), (3), (4) at 120; 60; 30; 15; 7.5; 3.75 ppm
Method: as §1, with “Yeast: Candida albicans” for “Mould: Aspergillus niger”, “10231” for “6275”

E. coli = type: cell-based, Escherichia coli NCTC 8196; conditions: optical density at 620 nm, 48 hours at 37° C., MIC = ≦20% growth; tested at 100; 10 and 1 ppm (approximate values); (2), (3), (4) at 120; 60; 30; 15; 7.5; 3.75 ppm
Method: as §1, with “Bacteria: Escherichia coli NCTC 8196” for “Mould: Aspergillus niger ATCC 6275”

S. aureus = type: cell-based; conditions: optical density at 620 nm, 48 hours at 37° C., MIC = ≦20% growth; tested at 100; 10 and 1 ppm (approximate values); (2), (3), (4) at 120; 60; 30; 15; 7.5; 3.75 ppm
Description: as §1, with “Bacteria: Staphylococcus hominis DMS 20328” for “Mould: Aspergillus niger ATCC 6275”

Oc1cccc(/C=C/c2nc(-c3ccccc3)cs2)c1 [Compound of formula (51)]
>100 ppm: MIC values in ppm A. niger (A. niger) | MIC values in ppm P. aeruginosa (P. aeruginosa) | MIC values in ppm C. albicans (C. albicans) | MIC values in ppm E. coli (E. coli) | MIC values in ppm S. aureus (S. aureus)

Cc1cc(/C=C/c2nc(C(C)(C)C)cs2)cc(C)c1O [Compound of formula (23)]
>100 ppm: MIC values in ppm A. niger (A. niger) | MIC values in ppm P. aeruginosa (P. aeruginosa) | MIC values in ppm C. albicans (C. albicans) | MIC values in ppm E. coli (E. coli) | MIC values in ppm S. aureus (S. aureus)

Cc1cc(/C=C/c2nc(-c3ccc(F)cc3)cs2)cc(C)c1O [Compound of formula (12)]
>100 ppm: MIC values in ppm A. niger (A. niger) | MIC values in ppm P. aeruginosa (P. aeruginosa) | MIC values in ppm C. albicans (C. albicans) | MIC values in ppm E. coli (E. coli) | MIC values in ppm S. aureus (S. aureus)

Oc1cccc(/C=C/c2nc(-c3ccc(F)cc3)cs2)c1 [Compound of formula (5)]
>100 ppm: MIC values in ppm A. niger (A. niger) | MIC values in ppm P. aeruginosa (P. aeruginosa) | MIC values in ppm C. albicans (C. albicans) | MIC values in ppm E. coli (E. coli) | MIC values in ppm S. aureus (S. aureus)

Oc1ccccc1/C=C/c1nc(-c2ccccc2)cs1 [Compound of formula (56)]
>100 ppm: MIC values in ppm A. niger (A. niger) | MIC values in ppm P. aeruginosa (P. aeruginosa) | MIC values in ppm C. albicans (C. albicans) | MIC values in ppm E. coli (E. coli) | MIC values in ppm S. aureus (S. aureus)

Cc1cc(/C=C/c2nc(-c3ccccc3)cs2)cc(C)c1O [Compound of formula (58)]
>100 ppm: MIC values in ppm A. niger (A. niger) | MIC values in ppm P. aeruginosa (P. aeruginosa) | MIC values in ppm C. albicans (C. albicans) | MIC values in ppm E. coli (E. coli) | MIC values in ppm S. aureus (S. aureus)

Cc1cccc(/C=C/c2nc(-c3ccc(F)cc3)cs2)c1O [Compound of formula (13)]
>100 ppm: MIC values in ppm A. niger (A. niger) | MIC values in ppm P. aeruginosa (P. aeruginosa) | MIC values in ppm C. albicans (C. albicans) | MIC values in ppm E. coli (E. coli) | MIC values in ppm S. aureus (S. aureus)

CCc1csc(/C=C/c2cccc(O)c2)n1 [Compound of formula (40)]
>100 ppm: MIC values in ppm A. niger (A. niger) | MIC values in ppm P. aeruginosa (P. aeruginosa) | MIC values in ppm C. albicans (C. albicans) | MIC values in ppm E. coli (E. coli) | MIC values in ppm S. aureus (S. aureus)

CCc1csc(/C=C/c2ccc(OC)cc2O)n1 [Compound of formula (44)]
>100 ppm: MIC values in ppm A. niger (A. niger) | MIC values in ppm P. aeruginosa (P. aeruginosa) | MIC values in ppm C. albicans (C. albicans) | MIC values in ppm E. coli (E. coli) | MIC values in ppm S. aureus (S. aureus)

CCc1csc(/C=C/c2ccc(OC)c(O)c2)n1 [Compound of formula (41)]
>100 ppm: MIC values in ppm A. niger (A. niger) | MIC values in ppm P. aeruginosa (P. aeruginosa) | MIC values in ppm C. albicans (C. albicans) | MIC values in ppm E. coli (E. coli) | MIC values in ppm S. aureus (S. aureus)

COc1ccc(/C=C/c2nc(-c3ccc(N4CCCC4)cc3)cs2)c(O)c1 [Compound of formula (32)]
>100 ppm: MIC values in ppm A. niger (A. niger) | MIC values in ppm P. aeruginosa (P. aeruginosa) | MIC values in ppm C. albicans (C. albicans) | MIC values in ppm E. coli (E. coli) | MIC values in ppm S. aureus (S. aureus)

Cc1cccc(/C=C/c2nc(-c3ccccc3)cs2)c1O [Compound of formula (59)]
>100 ppm: MIC values in ppm A. niger (A. niger) | MIC values in ppm P. aeruginosa (P. aeruginosa) | MIC values in ppm C. albicans (C. albicans) | MIC values in ppm E. coli (E. coli) | MIC values in ppm S. aureus (S. aureus)
